Laboratory results taken from patent US20240025862A1, “SUBSTITUTED N-PHENYLURACILS AND SALTS THEREOF, AND USE THEREOF AS HERBICIDAL ACTIVE SUBSTANCES” (Bayer Aktiengesellschaft, priority 2020, published 2024).

Columns and labels:
Type in all cases: in vivo
[1] = tested on: Triticum aestivum (TRZAS); assay: Post-emergence crop plant compatibility, greenhouse pot test; conditions: vs untreated controls
How it was run: (§1)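 Greenhouse-grown crop plants sprayed post-emergence at the one-leaf stage with WP or EC formulations plus 0.5% additive, at 600 l/ha water. Damage rated visually after about 3 weeks versus untreated controls (0% = like control, 100% = dead); suffixes a/b/c denote different dosages.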

[2] = tested on: Zea mays (ZEAMX); assay: as above; conditions: 1.25 g/ha, vs untreated controls
How it was run: as §1

[3] = tested on: Alopecurus myosuroides (ALOMY); assay: Post-emergence herbicidal action, greenhouse pot test (also comparative test C); conditions: rated visually after about 3 weeks vs untreated controls, 100% = plants have died; for pest or weed control at 5 g/ha / pest or weed control at 20 g/ha: Alopecurus myosuroides, 504 h; for pest or weed control at 5 g/ha: read-out: Post-emergence action at 5 g/ha against ALOMY in %; for pest or weed control at 20 g/ha: read-out: Post-emergence action at 20 g/ha against ALOMY in %
How it was run: (§2)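 Green parts of one-leaf-stage plants are sprayed at 600 l/ha with formulated compound plus 0.5% additive, then kept under optimum greenhouse conditions for about 3 weeks. Damage is scored visually, where 100% means dead plants and 0% means no difference from controls.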

[4] = tested on: Echinochloa crus-galli (ECHCG); assay: as above; conditions: for pest or weed control at 5 g/ha / pest or weed control at 20 g/ha: Echinochloa crus-galli, 504 h, read-out: Post-emergence action against ECHCG in %
How it was run: as §2

[5] = tested on: Setaria viridis (SETVI); assay: as above; conditions: for pest or weed control at 20 g/ha / pest or weed control at 1.25 g/ha / pest or weed control at 5 g/ha: Setaria viridis, 504 h; for pest or weed control at 20 g/ha: read-out: Post-emergence action against SETVI; for pest or weed control at 1.25 g/ha / pest or weed control at 5 g/ha: read-out: Post-emergence action against SETVI in %
How it was run: as §2

[6] = tested on: Matricaria inodora (MATIN); assay: as above
How it was run: as §2

[7] = tested on: Oryza sativa (ORYSA); assay: Post-emergence crop plant compatibility, greenhouse pot test (also comparative test C); conditions: vs untreated controls
How it was run: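 Rice and other crops sprayed post-emergence at one-leaf stage (2–3 weeks after sowing) with WP or EC formulations plus 0.5% additive at 600 l/ha water. Visual rating about 3 weeks later versus untreated controls (100% = dead, 0% = like control); suffixes a–c denote different doses.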

[8] = tested on: Polygonum convolvulus (POLCO); assay: Post-emergence herbicidal action, greenhouse pot test; conditions: for pest or weed control at 20 g/ha: Fallopia convolvulus, 504 h, read-out: Post-emergence action against POLCO in %
How it was run: (§3)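 Greenhouse-grown weeds in sandy loam were sprayed post-emergence at the one-leaf stage, 2–3 weeks after sowing. Compounds were formulated as WP or EC in water with 0.5% additive at 600 l/ha, at rates of 20 g/ha or less. Visual rating after about 3 weeks used a scale from 0% (like untreated control) to 100% (plants dead).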

[9] = tested on: Amaranthus retroflexus (AMARE); assay: as above; conditions: rated visually after about 3 weeks vs untreated controls, 100% = plants have died; for pest or weed control at 1.25 g/ha / pest or weed control at 5 g/ha / pest or weed control at 20 g/ha: Amaranthus retroflexus, 504 h; for pest or weed control at 1.25 g/ha: read-out: Post-emergence action at 1.25 g/ha against AMARE in %; for pest or weed control at 5 g/ha: read-out: Post-emergence action at 5 g/ha against AMARE in %; for pest or weed control at 20 g/ha: read-out: Post-emergence action at 20 g/ha against AMARE in %
How it was run: as §3

[10] = tested on: Avena fatua (AVEFA); assay: as above; conditions: rated visually after about 3 weeks vs untreated controls, 100% = plants have died; for pest or weed control at 20 g/ha: Avena fatua, 504 h, read-out: Post-emergence action at 20 g/ha against AVEFA in %
How it was run: as §3

[11] = tested on: Pharbitis purpurea (PHBPU); assay: as above
How it was run: as §3

[12] = tested on: Veronica persica (VERPE); assay: as above; conditions: for pest or weed control at 1.25 g/ha / pest or weed control at 5 g/ha / pest or weed control at 20 g/ha: Veronica persica, 504 h, read-out: Post-emergence action against VERPE
How it was run: as §3

[13] = tested on: Abutilon theophrasti (ABUTH); assay: as above; conditions: rated visually after about 3 weeks vs untreated controls, 100% = plants have died; for pest or weed control at 1.25 g/ha / pest or weed control at 5 g/ha / pest or weed control at 20 g/ha: Abutilon theophrasti, 504 h; for pest or weed control at 1.25 g/ha: read-out: Post-emergence action at 1.25 g/ha against ABUTH in %; for pest or weed control at 5 g/ha: read-out: Post-emergence action at 5 g/ha against ABUTH in %; for pest or weed control at 20 g/ha: read-out: Post-emergence action at 20 g/ha against ABUTH in %
How it was run: as §3

[14] = tested on: Viola tricolor (VIOTR); assay: as above; conditions: for pest or weed control at 1.25 g/ha / pest or weed control at 5 g/ha / pest or weed control at 20 g/ha: Viola tricolor, 504 h, read-out: Post-emergence action against VIOTR
How it was run: as §3

[15] = Tripleurospermum inodorum, 504 h, dosage 5 g/ha, read-out: Post-emergence action against MATIN in %
[16] = Tripleurospermum inodorum, 504 h, dosage 20 g/ha, read-out: Post-emergence action against MATIN in %
[17] = Ipomoea purpurea, 504 h, dosage 5 g/ha, read-out: Post-emergence action against PHBPU in %
[18] = Ipomoea purpurea, 504 h, dosage 20 g/ha, read-out: Post-emergence action against PHBPU in %

Cn1c(C(F)(F)F)cc(=O)n(-c2cc(Oc3ccccc3OCC(=O)OCC#N)c(C#N)cc2F)c1=O [I.9-176, Cyanomethyl (2-{2-cyano-4-fluoro-5-[3-methyl-2,6-dioxo-4-(trifluoromethyl)-3,6-dihydropyrimidin-1(2H)-yl]phenoxy}phenoxy)acetate]
80%: Post-emergence action at 5 g/ha against AVEFA in % ([10]; 5 g/ha) | pest or weed control at 20 g/ha ([10]; 20 g/ha)
20%: Post-emergence action against TRZAS (crop plant compatibility) ([1]; 5 g/ha) | Post-emergence action against ORYSA (crop plant compatibility) ([7]; 5 g/ha)
0%: Post-emergence action against TRZAS (crop plant compatibility) ([1]; 1.25 g/ha) | Post-emergence action against ZEAMX (crop plant compatibility) [2] | Post-emergence action against ORYSA (crop plant compatibility) ([7]; 1.25 g/ha)
100%: pest or weed control at 5 g/ha [3] | pest or weed control at 20 g/ha ([3]; 20 g/ha) | Post-emergence action at 1.25 g/ha against ECHCG in % ([4]; 1.25 g/ha, rated visually after about 3 weeks vs untreated controls, 100% = plants have died) | pest or weed control at 5 g/ha ([4]; dosage 5 g/ha) | pest or weed control at 20 g/ha ([4]; dosage 20 g/ha) | pest or weed control at 20 g/ha ([5]; 20 g/ha) | pest or weed control at 1.25 g/ha ([5]; dosage 1.25 g/ha) | pest or weed control at 5 g/ha ([5]; dosage 5 g/ha) | pest or weed control at 5 g/ha [6, 15] | pest or weed control at 20 g/ha [6, 16] | pest or weed control at 20 g/ha ([8]; dosage 20 g/ha) | pest or weed control at 1.25 g/ha ([9]; 1.25 g/ha) | pest or weed control at 5 g/ha ([9]; 5 g/ha) | pest or weed control at 20 g/ha ([9]; 20 g/ha) | pest or weed control at 5 g/ha [11, 17] | pest or weed control at 20 g/ha [11, 18] | pest or weed control at 1.25 g/ha [12] | pest or weed control at 5 g/ha ([12]; 5 g/ha) | pest or weed control at 20 g/ha ([12]; 20 g/ha) | pest or weed control at 1.25 g/ha ([13]; 1.25 g/ha) | pest or weed control at 5 g/ha ([13]; 5 g/ha) | pest or weed control at 20 g/ha ([13]; 20 g/ha) | pest or weed control at 1.25 g/ha ([14]; 1.25 g/ha) | pest or weed control at 5 g/ha ([14]; 5 g/ha) | pest or weed control at 20 g/ha ([14]; 20 g/ha)

COCC(C)OC(=O)COc1ccccc1Oc1cc(-n2c(=O)cc(C(F)(F)F)n(C)c2=O)c(F)cc1Cl (centres unmarked) [I.7-94, 1-Methoxypropan-2-yl (2-{2-chloro-4-fluoro-5-[3-methyl-2,6-dioxo-4-(trifluoromethyl)-3,6-dihydropyrimidin-1(2H)-yl]phenoxy}phenoxy)acetate]
0%: Post-emergence action against ORYSA (crop plant compatibility) ([7]; 1.25 g/ha)
100%: pest or weed control at 5 g/ha ([4]; dosage 5 g/ha) | pest or weed control at 20 g/ha ([4]; dosage 20 g/ha) | pest or weed control at 20 g/ha ([5]; 20 g/ha) | pest or weed control at 1.25 g/ha ([5]; dosage 1.25 g/ha) | pest or weed control at 5 g/ha ([5]; dosage 5 g/ha) | pest or weed control at 20 g/ha [6, 16] | pest or weed control at 20 g/ha ([8]; dosage 20 g/ha) | pest or weed control at 1.25 g/ha ([9]; 1.25 g/ha) | pest or weed control at 5 g/ha ([9]; 5 g/ha) | pest or weed control at 20 g/ha ([9]; 20 g/ha) | pest or weed control at 1.25 g/ha ([11]; Ipomoea purpurea, 504 h, dosage 1.25 g/ha, read-out: Post-emergence action against PHBPU in %) | pest or weed control at 5 g/ha [11, 17] | pest or weed control at 20 g/ha [11, 18] | pest or weed control at 1.25 g/ha [12] | pest or weed control at 5 g/ha ([12]; 5 g/ha) | pest or weed control at 20 g/ha ([12]; 20 g/ha) | pest or weed control at 1.25 g/ha ([13]; 1.25 g/ha) | pest or weed control at 5 g/ha ([13]; 5 g/ha) | pest or weed control at 20 g/ha ([13]; 20 g/ha) | pest or weed control at 5 g/ha ([14]; 5 g/ha) | pest or weed control at 20 g/ha ([14]; 20 g/ha)
20%: Post-emergence action against TRZAS (crop plant compatibility) ([1]; 1.25 g/ha) | Post-emergence action against ORYSA (crop plant compatibility) ([7]; 5 g/ha)
80%: pest or weed control at 5 g/ha [3] | pest or weed control at 20 g/ha ([3]; 20 g/ha) | pest or weed control at 1.25 g/ha ([6]; Tripleurospermum inodorum, 504 h, dosage 1.25 g/ha, read-out: Post-emergence action against MATIN in %) | pest or weed control at 5 g/ha [6, 15] | pest or weed control at 20 g/ha ([10]; 20 g/ha) | pest or weed control at 1.25 g/ha ([14]; 1.25 g/ha)
10%: Post-emergence action against ZEAMX (crop plant compatibility) [2]

Cn1c(C(F)(F)F)cc(=O)n(-c2cc(Oc3ccccc3OCC(=O)OCCOC(F)(F)F)c(C#N)cc2F)c1=O [I.9-41]
80%: Post-emergence action at 20 g/ha against ALOMY in % ([3]; 20 g/ha) | Post-emergence action against ECHCG in % ([4]; dosage 5 g/ha) | Post-emergence action at 20 g/ha against AVEFA in % ([10]; 20 g/ha)
0%: Post-emergence action against TRZAS (crop plant compatibility) ([1]; 1.25 g/ha) | Post-emergence action against ORYSA (crop plant compatibility) ([7]; 1.25 g/ha) | Post-emergence action against ORYSA (crop plant compatibility) ([7]; 5 g/ha)
100%: Post-emergence action against ECHCG in % ([4]; dosage 20 g/ha) | Post-emergence action against SETVI ([5]; 20 g/ha) | Post-emergence action against SETVI in % ([5]; dosage 1.25 g/ha) | Post-emergence action against SETVI in % ([5]; dosage 5 g/ha) | Post-emergence action against MATIN in % ([6]; dosage 1.25 g/ha) | Post-emergence action against MATIN in % ([6]; dosage 5 g/ha) | Post-emergence action against MATIN in % ([6]; dosage 20 g/ha) | Post-emergence action against POLCO in % ([8]; dosage 20 g/ha) | Post-emergence action at 1.25 g/ha against AMARE in % ([9]; 1.25 g/ha) | Post-emergence action at 5 g/ha against AMARE in % ([9]; 5 g/ha) | Post-emergence action at 20 g/ha against AMARE in % ([9]; 20 g/ha) | Post-emergence action against PHBPU in % ([11]; dosage 1.25 g/ha) | Post-emergence action against PHBPU in % ([11]; dosage 5 g/ha) | Post-emergence action against PHBPU in % ([11]; dosage 20 g/ha) | Post-emergence action against VERPE ([12]; 5 g/ha) | Post-emergence action against VERPE ([12]; 20 g/ha) | Post-emergence action at 1.25 g/ha against ABUTH in % ([13]; 1.25 g/ha) | Post-emergence action at 5 g/ha against ABUTH in % ([13]; 5 g/ha) | Post-emergence action at 20 g/ha against ABUTH in % ([13]; 20 g/ha) | Post-emergence action against VIOTR ([14]; 5 g/ha) | Post-emergence action against VIOTR ([14]; 20 g/ha)
10%: Post-emergence action against TRZAS (crop plant compatibility) ([1]; 5 g/ha) | Post-emergence action against ZEAMX (crop plant compatibility) [2]
90%: Post-emergence action against POLCO in % ([8]; dosage 5 g/ha) | Post-emergence action against VIOTR ([14]; 1.25 g/ha)
20%: Post-emergence action against TRZAS (crop plant compatibility) ([1]; 20 g/ha)
